Assay results from patent US9169254B2, “Spiroimidazolone derivative” (Chugai Seiyaku Kabushiki Kaisha, priority 2009, dated 2015).

target: T1, human PTH1 receptor (Homo sapiens, UniProt Q03431); assay: In vitro cAMP signal activity in HKRK-B7 cells (LLC-PK1 cells overexpressing the human PTH1 receptor); assay type: cell-based; settings: HKRK-B7 cells; compound at 1×10^−3 M; cAMP produced as percentage of that produced by hPTH(1-34) at 100 nM
T1 sequence (Q03431 27-593): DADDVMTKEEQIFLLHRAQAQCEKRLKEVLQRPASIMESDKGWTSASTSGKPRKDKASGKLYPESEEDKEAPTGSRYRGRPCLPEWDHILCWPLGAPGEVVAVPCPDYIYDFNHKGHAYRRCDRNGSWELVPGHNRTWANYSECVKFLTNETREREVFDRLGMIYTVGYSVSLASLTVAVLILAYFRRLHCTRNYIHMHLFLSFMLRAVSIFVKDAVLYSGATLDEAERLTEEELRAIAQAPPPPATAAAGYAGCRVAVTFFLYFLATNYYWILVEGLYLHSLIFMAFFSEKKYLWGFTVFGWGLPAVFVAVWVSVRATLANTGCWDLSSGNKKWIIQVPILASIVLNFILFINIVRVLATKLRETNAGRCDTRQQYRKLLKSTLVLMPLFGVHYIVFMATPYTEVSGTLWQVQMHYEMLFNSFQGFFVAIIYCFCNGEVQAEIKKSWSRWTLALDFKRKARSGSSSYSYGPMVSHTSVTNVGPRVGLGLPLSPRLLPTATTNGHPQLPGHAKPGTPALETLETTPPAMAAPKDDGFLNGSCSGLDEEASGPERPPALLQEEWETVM

Row | SMILES | cAMP production activity (%)
1 | CC(=O)Nc1ccc(CCS(=O)(=O)N2CCC3(CC2)N=C(C2CCC(/C=C/CF)CC2)NC3=O)c(C)c1 (stereo not shown) [Compound 1063, N-[4-(2-{2-[4-((E)-3-fluoro-propenyl)-cyclohexyl]-4-oxo-1,3,8-triaza-spiro[4.5]dec-1-ene-8-sulfonyl}-ethyl)-3-methyl-phenyl]-acetamide] | 72
2 | Cc1cc(C(=O)N2CCC(O)(CF)CC2)cc(C)c1/C=C/S(=O)(=O)N1CCC2(CC1)N=C(c1ccc(Cl)c(Cl)c1)NC2=O [Compound 1257, 2-(3,4-dichloro-phenyl)-8-{(E)-2-[4-(4-fluoromethyl-4-hydroxy-piperidine-1-carbonyl)-2,6-dimethyl-phenyl]-ethenesulfonyl}-1,3,8-triaza-spiro[4.5]dec-1-en-4-one] | 98
3 | CC(=O)Nc1ccc(CCS(=O)(=O)N2CCC3(CC2)N=C(C2CCC(C(F)(F)F)CC2)NC3=O)c(C)c1 (stereo not shown) [Compound 904, N-(3-methyl-4-{2-[4-oxo-2-(4-trifluoromethyl-cyclohexyl)-1,3,8-triaza-spiro[4.5]dec-1-ene-8-sulfonyl]-ethyl}-phenyl)-acetamide] | 69
4 | CC1(C2=NC3(CCN(S(=O)(=O)c4cccc(Cl)c4)CC3)C(=O)N2)CCCCC1 [Compound 14, 8-(3-chloro-benzenesulfonyl)-2-(1-methyl-cyclohexyl)-1,3,8-triaza-spiro[4.5]dec-1-en-4-one] | 38
5 | Cc1cc2ccc1CCS(=O)(=O)N1CCC3(CC1)N=C(NC3=O)c1cc(cc(C(F)(F)F)c1)OCCCCCNC(=O)CN(C)C2=O [Compound 1449] | 18
6 | O=C(Nc1ccc(CCS(=O)(=O)N2CCC3(CC2)N=C(C2CCCCC2)NC3=O)c(C(F)(F)F)c1)c1ccccc1 [Compound 662, N-{4-[2-(2-cyclohexyl-4-oxo-1,3,8-triaza-spiro[4.5]dec-1-ene-8-sulfonyl)-ethyl]-3-trifluoromethyl-phenyl}-benzamide] | 23
7 | O=C1NC(C2CCCN(S(=O)(=O)Cc3ccccc3)C2)=NC12CCN(S(=O)(=O)CCc1cccc3ccccc13)CC2 (stereo not shown) [Compound 43, 8-(2-naphthalen-1-yl-ethanesulfonyl)-2-(1-phenylmethanesulfonyl-piperidin-3-yl)-1,3,8-triaza-spiro[4.5]dec-1-en-4-one] | 39
8 | Cc1cc2nc(N)oc2c(C)c1CCS(=O)(=O)N1CCC2(CC1)N=C(C1CCC(C)CC1)NC2=O (stereo not shown) [Compound 1178, 8-[2-(2-Amino-5,7-dimethyl-benzoxazol-6-yl)-ethanesulfonyl]-2-(4-methyl-cyclohexyl)-1,3,8-triaza-spiro[4.5]dec-1-en-4-one] | 84
9 | Cc1cccc(NCCO)c1/C=C/S(=O)(=O)N1CCC2(CC1)N=C(C1CCCCC1)NC2=O [Compound 200, 2-cyclohexyl-8-{(E)-2-[2-(2-hydroxy-ethylamino)-6-methyl-phenyl]-ethenesulfonyl}-1,3,8-triaza-spiro[4.5]dec-1-en-4-one] | 37
10 | CC(=O)N1CCN(C(=O)c2cc(C)c(/C=C/S(=O)(=O)N3CCC4(CC3)N=C(c3cccc(OC(F)(F)F)c3)NC4=O)c(C)c2)CC1 [Compound 394, 8-{(E)-2-[4-(4-Acetyl-piperazine-1-carbonyl)-2,6-dimethyl-phenyl]-ethenesulfonyl}-2-(3-trifluoromethoxy-phenyl)-1,3,8-triaza-spiro[4.5]dec-1-en-4-one] | 59
11 | CC(=O)Nc1ccc(CCS(=O)(=O)N2CCC3(CC2)N=C([C@H]2CC[C@@H](CC(F)(F)C(F)(F)F)CC2)NC3=O)c(C)c1 [Compound 1069, N-[3-methyl-4-(2-{4-oxo-2-[4-(2,2,3,3,3-pentafluoro-propyl)-cyclohexyl]-1,3,8-triaza-spiro[4.5]dec-1-ene-8-sulfonyl}-ethyl)-phenyl]-acetamide] | 79
12 | Cc1cc(CNC(=O)OC(C)(C)C)ccc1CCS(=O)(=O)N1CCC2(CC1)N=C(c1ccc(F)c(C(F)(F)F)c1)NC2=O [Compound 164, (4-{2-[2-(4-fluoro-3-trifluoromethyl-phenyl)-4-oxo-1,3,8-triaza-spiro[4.5]dec-1-ene-8-sulfonyl]-ethyl}-3-methyl-benzyl)-carbamic acid tert-butyl ester] | 45
13 | [2H]C([2H])([2H])N(C(=O)OC(C)(C)C)c1cc(C)c(/C=C/S(=O)(=O)N2CCC3(CC2)N=C(c2ccc(F)c(C(F)(F)F)c2)NC3=O)c(C)c1 [Compound 640, (4-{(E)-2-[2-(4-fluoro-3-trifluoromethyl-phenyl)-4-oxo-1,3,8-triaza-spiro[4.5]dec-1-ene-8-sulfonyl]-vinyl}-3,5-dimethyl-phenyl)-[1,1,1-^2H3]methyl-carbamic acid tert-butyl ester] | 26
14 | Cc1cc(OC[C@H](O)CO)cc(C)c1CCS(=O)(=O)N1CCC2(CC1)N=C(c1cccc(OCCCC(F)(F)C(F)(F)F)c1)NC2=O [Compound 1328, 8-{2-[4-((R)-2,3-Dihydroxy-propoxy)-2,6-dimethyl-phenyl]-ethanesulfonyl}-2-[3-(4,4,5,5,5-pentafluoro-pentyloxy)-phenyl]-1,3,8-triaza-spiro[4.5]dec-1-en-4-one] | 93
15 | Cc1cc(C(=O)N2CCC(O)(CF)CC2)cc(C)c1CCS(=O)(=O)N1CCC2(CC1)N=C(C1CCC(C)CC1)NC2=O (stereo not shown) [Compound 1383, 8-{2-[4-(4-fluoromethyl-4-hydroxy-piperidine-1-carbonyl)-2,6-dimethyl-phenyl]-ethanesulfonyl}-2-(4-methyl-cyclohexyl)-1,3,8-triaza-spiro[4.5]dec-1-en-4-one] | 96
16 | Cc1cc2ccc1CCS(=O)(=O)N1CCC3(CC1)N=C(NC3=O)c1cc(cc(C(F)(F)F)c1)OCCc1cn(nn1)CCCN(C)C2=O [Compound 1442] | 9.3
17 | Cc1cc2ccc1CCS(=O)(=O)N1CCC3(CC1)N=C(NC3=O)c1cc(cc(C(F)(F)F)c1)OCC/C=C/CO[C@H]1CN(C[C@@H]1O)C2=O [Compound 1424] | 29
18 | O=C1NC(c2cccc(OC(F)(F)F)c2)=NC12CCN(S(=O)(=O)CCc1cc(F)c(OCCC(O)CO)c(F)c1)CC2 (stereo not shown) [Compound 860, 8-{2-[4-(3,4-dihydroxy-butoxy)-3,5-difluoro-phenyl]-ethanesulfonyl}-2-(3-trifluoromethoxy-phenyl)-1,3,8-triaza-spiro[4.5]dec-1-en-4-one] | 50
19 | Cc1cc(CN(CCO)C(=O)OC(C)(C)C)ccc1/C=C/S(=O)(=O)N1CCC2(CC1)N=C(C1CCCCC1)NC2=O [Compound 708, {4-[(E)-2-(2-Cyclohexyl-4-oxo-1,3,8-triaza-spiro[4.5]dec-1-ene-8-sulfonyl)-vinyl]-3-methyl-benzyl}-(2-hydroxy-ethyl)-carbamic acid tert-butyl ester] | 38
20 | Cc1cc2cc(C)c1CCS(=O)(=O)N1CCC3(CC1)N=C(CCCCCCCCCCC(=O)N2C)NC3=O [Compound 1448] | 9.4
21 | CC(=O)N(CCO)c1ccc(CCS(=O)(=O)N2CCC3(CC2)N=C(c2ccc(F)c(C(F)(F)F)c2)NC3=O)c(C)c1 [Compound 721, N-(4-{2-[2-(4-Fluoro-3-trifluoromethyl-phenyl)-4-oxo-1,3,8-triaza-spiro[4.5]dec-1-ene-8-sulfonyl]-ethyl}-3-methyl-phenyl)-N-(2-hydroxy-ethyl)-acetamide] | 92
22 | Cc1cc(CN2C(=O)CNC2=O)cc(C)c1CCS(=O)(=O)N1CCC2(CC1)N=C(C1CCC(CCC(F)(F)F)CC1)NC2=O (stereo not shown) [Compound 774, 3-[3,5-dimethyl-4-(2-{4-oxo-2-[4-(3,3,3-trifluoro-propyl)-cyclohexyl]-1,3,8-triaza-spiro[4.5]dec-1-ene-8-sulfonyl}-ethyl)-benzyl]-imidazolidine-2,4-dione] | 80

test system: not given; assay: not given; settings: subcutaneous administration; in one year; cited from earlier work

Row | SMILES | increase of the spine bone mineral density (BMD) [%]
23 | CC[C@H](C)[C@H](NC(=O)[C@H](CCC(=O)O)NC(=O)[C@H](CO)NC(=O)[C@@H](NC(=O)[C@@H](N)CO)C(C)C)C(=O)N[C@@H](CCC(N)=O)C(=O)N[C@@H](CC(C)C)C(=O)N[C@@H](CCSC)C(=O)N[C@@H](Cc1cnc[nH]1)C(=O)N[C@@H](CC(N)=O)C(=O)N[C@@H](CC(C)C)C(=O)NCC(=O)N[C@@H](CCCCN)C(=O)N[C@@H](Cc1cnc[nH]1)C(=O)N[C@@H](CC(C)C)C(=O)N[C@@H](CC(N)=O)C(=O)N[C@@H](CO)C(=O)N[C@@H](CCSC)C(=O)N[C@@H](CCC(=O)O)C(=O)N[C@@H](CCCN=C(N)N)C(=O)N[C@H](C(=O)N[C@@H](CCC(=O)O)C(=O)N[C@@H](Cc1c[nH]c2ccccc12)C(=O)N[C@@H](CC(C)C)C(=O)N[C@@H](CCCN=C(N)N)C(=O)N[C@@H](CCCCN)C(=O)N[C@@H](CCCCN)C(=O)N[C@@H](CC(C)C)C(=O)N[C@@H](CCC(N)=O)C(=O)N[C@@H](CC(=O)O)C(=O)N[C@H](C(=O)N[C@@H](Cc1cnc[nH]1)C(=O)N[C@@H](CC(N)=O)C(=O)N[C@@H](Cc1ccccc1)C(=O)O)C(C)C)C(C)C [human PTH(1-34), teriparatide] | 8

test system: not given; assay: not given; settings: subcutaneous administration; in two years; cited from earlier work

Row | SMILES | decrease of the risk of nonvertebral fracture [%] | decrease of the risk of vertebral fracture [%]
24 | CC[C@H](C)[C@H](NC(=O)[C@H](CCC(=O)O)NC(=O)[C@H](CO)NC(=O)[C@@H](NC(=O)[C@@H](N)CO)C(C)C)C(=O)N[C@@H](CCC(N)=O)C(=O)N[C@@H](CC(C)C)C(=O)N[C@@H](CCSC)C(=O)N[C@@H](Cc1cnc[nH]1)C(=O)N[C@@H](CC(N)=O)C(=O)N[C@@H](CC(C)C)C(=O)NCC(=O)N[C@@H](CCCCN)C(=O)N[C@@H](Cc1cnc[nH]1)C(=O)N[C@@H](CC(C)C)C(=O)N[C@@H](CC(N)=O)C(=O)N[C@@H](CO)C(=O)N[C@@H](CCSC)C(=O)N[C@@H](CCC(=O)O)C(=O)N[C@@H](CCCN=C(N)N)C(=O)N[C@H](C(=O)N[C@@H](CCC(=O)O)C(=O)N[C@@H](Cc1c[nH]c2ccccc12)C(=O)N[C@@H](CC(C)C)C(=O)N[C@@H](CCCN=C(N)N)C(=O)N[C@@H](CCCCN)C(=O)N[C@@H](CCCCN)C(=O)N[C@@H](CC(C)C)C(=O)N[C@@H](CCC(N)=O)C(=O)N[C@@H](CC(=O)O)C(=O)N[C@H](C(=O)N[C@@H](Cc1cnc[nH]1)C(=O)N[C@@H](CC(N)=O)C(=O)N[C@@H](Cc1ccccc1)C(=O)O)C(C)C)C(C)C [human PTH(1-34), teriparatide] | 55 | 65
